Measured values taken from US20230165831A1, “METHOD AND COMPOSITION FOR RENDERING CANCER CELLS SUSCEPTIBLE TO TREATMENT BY TARGETED ONCOGENETIC DRIVERS” (IMPACT BIOLIFE SCIENCE, INC., priority 2021, published 2023).

What was measured:
[1] = test system: pancreatic cancer line Capan-1 cells; experiment: CTG (CellTiter-Glo) cell viability assay, 6×6 combo matrix, 72 h, Capan-1; assay type: cell-based; conditions: for Relatively Cell inhibition of vehicle control(%): Capan-1
Method: To measure the cell inhibition effect of compounds and synergy effect of test articles on ten (10) cell lines using standard CTG assay.
b. A549, T47D, SK-OV-3, MKN45, SK-Hep-1, HT-29, Capan-1, 786-O and LNCaP cell line, for compounds and vehicle groups, the seeding density of cell lines is 3000 cells/80 µL per well. For blank groups, add 100 µL medium. For PBS groups, add 100 µL PBS.
8) Incubate the U87MG, A549, T47D, SK-OV-3, MKN45, SK-Hep-1, HT-29, Capan-1, 786-O and LNCaP cells overnight at 37° C./5% CO2.
5) Incubate the plates at 37° C./5% CO2 for 72 hours.
6) Read plates in Envision.

[2] = test system: breast cancer line T47D cells; experiment: CTG (CellTiter-Glo) cell viability assay, 6×6 combo matrix, 72 h, T47D;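 further: luminescence read-out after 72 h at 37 °C under 5% CO2, with medium-only wells as blanks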
[3] = test system: colorectal cancer line HT29 cells; experiment: CTG (CellTiter-Glo) cell viability assay, 6×6 combo matrix, 72 h, HT29; conditions: HT29;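 further: cells exposed to compounds for 72 hours at 37 °C under 5% CO2, then viability read as luminescence after adding CellTiter-Glo Reagent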
Method: (§1) 7) Using complete cell medium, adjust the volume of the suspension to achieve a cell concentration.
(§2) Solid compound of cis-platinum was solubilized in PBS to a stock solution of 3.333 mM.
(§3) Final volume is 100 µL per well at this point.
(§4) 1) Incubate the plates at room temperature and away from light for 30 minutes.
(§5) 3) Add 100 µL /well of CellTiter-Glo® Reagent in each well. Avoid light.
(§6) 4) Mix contents for 2 minutes on an orbital shaker.
(§7) 5) Incubate plate at room temperature for 10 minutes to stabilize the luminescent signal.

[4] = test system: lung adenocarcinoma line A549 cells; experiment: CTG (CellTiter-Glo) cell viability assay, 6×6 combo matrix, 72 h, A549; conditions: A549;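 further: luminescent ATP readout with CellTiter-Glo after compound exposure, used to assess growth inhibition and combination synergy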
Method: as §1, §2, §3, §4, §5, §6, §7

[5] = test system: glioblastoma line U87MG cells; experiment: CTG (CellTiter-Glo) cell viability assay, 6×6 combo matrix, 72 h, U87MG;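 further: U87MG cells seeded at 2000 per well, exposed 72 h, viability read by CellTiter-Glo luminescence, inhibition expressed relative to vehicle-treated wells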
Method: as §1
U87MG cell lines, for compounds and vehicle groups, the seeding density of cell lines is 2000 cells/80 µL per well. For blank groups, add 100 µL medium. For PBS groups, add 100 µL PBS.
as §2, §3, §4, §5, §6, §7

[6] = test system: prostate adenocarcinoma line LNCap cells; experiment: CTG (CellTiter-Glo) cell viability assay, 6×6 combo matrix, 72 h, LNCaP;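 further: luminescence signal read after adding CellTiter-Glo reagent, with cells exposed to compounds for 72 h at 37 °C under 5% CO2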
Method: as §1, §2, §3, §4, §5, §6, §7

[7] = test system: gastric cancer line MKN45 cells; experiment: CTG (CellTiter-Glo) cell viability assay, 6×6 combo matrix, 72 h, MKN45;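 further: MKN45 cell viability read as CellTiter-Glo luminescence after 72 h culture at 37 °C under 5% CO2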
[8] = test system: kidney cancer line 786-O cells; experiment: CTG (CellTiter-Glo) cell viability assay, 6×6 combo matrix, 72 h, 786-O; conditions: for Relatively Cell inhibition of vehicle control(%): 786-O;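 on all read-outs here: luminescence read-out after adding CellTiter-Glo reagent, with cells incubated at 37 °C under 5% CO2 during compound exposure, part of a ten cell line synergy study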
Method: as §1, §2, §3, §4, §5, §6, §7

[9] = test system: ovarian cancer line SK-OV3 cells; experiment: CTG (CellTiter-Glo) cell viability assay, 6×6 combo matrix, 72 h, SK-OV-3; conditions: SK-OV-3;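 further: luminescent signal read after CellTiter-Glo addition, cells exposed to compounds for 72 h at 37 °C under 5% CO2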
[10] = test system: Liver cancer line SK-HEP-1 cells; experiment: CTG (CellTiter-Glo) cell viability assay, 6×6 combo matrix, 72 h, SK-Hep-1;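 further: luminescent signal read after 72 h compound exposure at 37 °C under 5% CO2, with medium-only wells serving as blank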
[11] = cisplatin 0.048 µM only (myricetin plate)
[12] = cisplatin 1.2 µM only (myricetin plate)
[13] = cisplatin 6 µM only (myricetin plate)
[14] = cisplatin 30 µM only (myricetin plate)

## N.N.[Cl][Pt][Cl] [cisplatin]
[1]; Cis 0.048 µM only
  Relatively Cell inhibition of vehicle control(%): -11.79%
[1]; Cis 1.2 µM only
  Relatively Cell inhibition of vehicle control(%): 19.41%
[1]; Cis 6 µM only
  Relatively Cell inhibition of vehicle control(%): 49.43%
[1]; Cis 30 µM only
  Relatively Cell inhibition of vehicle control(%): 79.85%
[1]; cisplatin 0.048 µM only
  Relatively Cell inhibition of vehicle control: -4.42%
[1]; cisplatin 1.2 µM only
  Relatively Cell inhibition of vehicle control: 16.43%
[1]; cisplatin 6 µM only
  Relatively Cell inhibition of vehicle control: 42.34%
[1]; cisplatin 30 µM only
  Relatively Cell inhibition of vehicle control: 66.79%
[2]; 0.048 µM cisplatin only (LB-1 0)
  Relatively Cell inhibition of vehicle control(%): 1.63%
[2]; 0.048 µM cisplatin only (myricetin 0)
  Relatively Cell inhibition of vehicle control(%): 0.23%
[2]; 1.2 µM cisplatin only (LB-1 0)
  Relatively Cell inhibition of vehicle control(%): -1.67%
[2]; 1.2 µM cisplatin only (myricetin 0)
  Relatively Cell inhibition of vehicle control(%): 0.07%
[2]; 6 µM cisplatin only (LB-1 0)
  Relatively Cell inhibition of vehicle control(%): -0.49%
[2]; 6 µM cisplatin only (myricetin 0)
  Relatively Cell inhibition of vehicle control(%): 11.28%
[2]; 30 µM cisplatin only (LB-1 0)
  Relatively Cell inhibition of vehicle control(%): 22.74%
[2]; 30 µM cisplatin only (myricetin 0)
  Relatively Cell inhibition of vehicle control(%): 36.54%
[3]; Cis 0.048 µM only (LB-1 0)
  Relatively Cell inhibition of vehicle control(%): 2.74%
[3]; Cis 0.048 µM only (Myr 0)
  Relatively Cell inhibition of vehicle control(%): -4.21%
[3]; Cis 1.2 µM only (LB-1 0)
  Relatively Cell inhibition of vehicle control(%): 6.85%
[3]; Cis 1.2 µM only (Myr 0)
  Relatively Cell inhibition of vehicle control(%): 6.63%
[3]; Cis 6 µM only (LB-1 0)
  Relatively Cell inhibition of vehicle control(%): 19.05%
[3]; Cis 6 µM only (Myr 0)
  Relatively Cell inhibition of vehicle control(%): 20.8%
[3]; Cis 30 µM only (LB-1 0)
  Relatively Cell inhibition of vehicle control(%): 52.83%
[3]; Cis 30 µM only (Myr 0)
  Relatively Cell inhibition of vehicle control(%): 66.86%
[4]; 30 µM cisplatin only (LB-1 0), 72 h
  inhibition rate: 65.03%
[4]; cisplatin 0.048 µM only (myricetin 0)
  Relatively Cell inhibition of vehicle control(%): 1.46%
[4]; cisplatin 1.2 µM only (myricetin 0)
  Relatively Cell inhibition of vehicle control(%): 0.61%
[4]; cisplatin 6 µM only (myricetin 0)
  Relatively Cell inhibition of vehicle control(%): 33.19%
[4]; cisplatin 30 µM only (myricetin 0)
  Relatively Cell inhibition of vehicle control(%): 77.27%
[4]; Cis 0.048 µM only
  Relatively Cell inhibition of vehicle control(%): 0.17%
[4]; Cis 1.2 µM only
  Relatively Cell inhibition of vehicle control(%): 1.57%
[4]; Cis 6 µM only
  Relatively Cell inhibition of vehicle control(%): 33.27%
[4]; Cis 30 µM only
  Relatively Cell inhibition of vehicle control(%): 65.03%
[5]; cisplatin 0.048 µM only
  Relatively Cell inhibition of vehicle control(%): 1.97%
[5]; [11]
  Relatively Cell inhibition of vehicle control(%): 0.89%
[5]; cisplatin 1.2 µM only
  Relatively Cell inhibition of vehicle control(%): 11.78%
[5]; [12]
  Relatively Cell inhibition of vehicle control(%): 15.05%
[5]; cisplatin 6 µM only
  Relatively Cell inhibition of vehicle control(%): 46.78%
[5]; [13]
  Relatively Cell inhibition of vehicle control(%): 58.90%
[5]; cisplatin 30 µM only
  Relatively Cell inhibition of vehicle control(%): 83.20%
[5]; [14]
  Relatively Cell inhibition of vehicle control(%): 86.28%
[6]; cisplatin 0.048 µM only (LB-1 plate)
  Relatively Cell inhibition of vehicle control(%): -11.07%
[6]; [11]
  Relatively Cell inhibition of vehicle control(%): -7.42%
[6]; cisplatin 1.2 µM only (LB-1 plate)
  Relatively Cell inhibition of vehicle control(%): -13.28%
[6]; [12]
  Relatively Cell inhibition of vehicle control(%): -9.21%
[6]; cisplatin 6 µM only (LB-1 plate)
  Relatively Cell inhibition of vehicle control(%): 12.99%
[6]; [13]
  Relatively Cell inhibition of vehicle control(%): 19.01%
[6]; cisplatin 30 µM only (LB-1 plate)
  Relatively Cell inhibition of vehicle control(%): 53.09%
[6]; [14]
  Relatively Cell inhibition of vehicle control(%): 61.54%
[7]; Cis 0.048 µM only (LB-1 0)
  Relatively Cell inhibition of vehicle control(%): 7.78%
[7]; Cis 0.048 µM only (Myr 0)
  Relatively Cell inhibition of vehicle control(%): 5.10%
[7]; Cis 1.2 µM only (LB-1 0)
  Relatively Cell inhibition of vehicle control(%): 5.53%
[7]; Cis 1.2 µM only (Myr 0)
  Relatively Cell inhibition of vehicle control(%): 22.76%
[7]; Cis 6 µM only (LB-1 0)
  Relatively Cell inhibition of vehicle control(%): 33.22%
[7]; Cis 6 µM only (Myr 0)
  Relatively Cell inhibition of vehicle control(%): 48.92%
[7]; Cis 30 µM only (LB-1 0)
  Relatively Cell inhibition of vehicle control(%): 81.54%
[7]; Cis 30 µM only (Myr 0)
  Relatively Cell inhibition of vehicle control(%): 90.46%
[8]; Cis 0.048 µM only (LB-1 0)
  Relatively Cell inhibition of vehicle control(%): 0.45%
[8]; Cis 1.2 µM only (LB-1 0)
  Relatively Cell inhibition of vehicle control(%): 5.31%
[8]; Cis 6 µM only (LB-1 0)
  Relatively Cell inhibition of vehicle control(%): 60.32%
[8]; Cis 30 µM only (LB-1 0)
  Relatively Cell inhibition of vehicle control(%): 90.04%
[8]; cisplatin 0.048 µM only
  Relatively Cell inhibition of vehicle control: -1.09%
[8]; cisplatin 1.2 µM only
  Relatively Cell inhibition of vehicle control: 10.33%
[8]; cisplatin 6 µM only
  Relatively Cell inhibition of vehicle control: 67.62%
[8]; cisplatin 30 µM only
  Relatively Cell inhibition of vehicle control: 86.78%
[9]; Cis 0.048 µM only (LB-1 matrix)
  Relatively Cell inhibition of vehicle control(%): -0.61%
[9]; Cis 0.048 µM only (myricetin matrix)
  Relatively Cell inhibition of vehicle control(%): 0.65%
[9]; Cis 1.2 µM only (LB-1 matrix)
  Relatively Cell inhibition of vehicle control(%): 7.66%
[9]; Cis 1.2 µM only (myricetin matrix)
  Relatively Cell inhibition of vehicle control(%): 17.32%
[9]; Cis 6 µM only (LB-1 matrix)
  Relatively Cell inhibition of vehicle control(%): 50.05%
[9]; Cis 6 µM only (myricetin matrix)
  Relatively Cell inhibition of vehicle control(%): 55.97%
[9]; Cis 30 µM only (LB-1 matrix)
  Relatively Cell inhibition of vehicle control(%): 88.98%
[9]; Cis 30 µM only (myricetin matrix)
  Relatively Cell inhibition of vehicle control(%): 85.03%
[10]; cisplatin 0.048 µM only (LB-1 table)
  Relatively Cell inhibition of vehicle control: -8.71%
[10]; cisplatin 0.048 µM only (myricetin table)
  Relatively Cell inhibition of vehicle control: -7.69%
[10]; cisplatin 1.2 µM only (LB-1 table)
  Relatively Cell inhibition of vehicle control: -10.98%
[10]; cisplatin 1.2 µM only (myricetin table)
  Relatively Cell inhibition of vehicle control: -2.56%
[10]; cisplatin 6 µM only (LB-1 table)
  Relatively Cell inhibition of vehicle control: 29.88%
[10]; cisplatin 6 µM only (myricetin table)
  Relatively Cell inhibition of vehicle control: 29.55%
[10]; cisplatin 30 µM only (LB-1 table)
  Relatively Cell inhibition of vehicle control: 70.68%
[10]; cisplatin 30 µM only (myricetin table)
  Relatively Cell inhibition of vehicle control: 76.71%
